Reference: US7317115B2, “Mandelates salts of substituted tetracyclic tetrahydrofuran derivatives” (Janssen Pharmaceutica, N.V., priority 2001, dated 2008)

Test: Adsorption and desorption of water
Type: physicochemical
Conditions: 25° C., different relative humidity
Procedure: The adsorption and desorption of water at 25° C. at different conditions of relative humidity is investigated on an amount of ±10 mg of each salt. The weight change as a function of relative humidity is registered.

CNCC1CC2c3ccccc3Cc3ccc(F)cc3C2O1.O=C(O)CC(=O)O (single isomer, unassigned) [malonate salt, B-(2α,3aα,12bβ)-11-fluoro-3,3a,8,12b-tetrahydro-N-methyl-2H-dibenzo-[3,4:6,7]cyclohepta[1,2-b]furan-2 methanamine]
water adsorption/desorption behaviour (weight change as a function of relative humidity): less stable but the weight change as a function of the relative humidity is very small

CNCC1CC2c3ccccc3Cc3ccc(F)cc3C2O1.O=C(O)CCC(=O)O (single isomer, unassigned) [succinate salt, B-(2α,3aα,12bβ)-11-fluoro-3,3a,8,12b-tetrahydro-N-methyl-2H-dibenzo-[3,4:6,7]cyclohepta[1,2-b]furan-2 methanamine]
water adsorption/desorption behaviour (weight change as a function of relative humidity): less stable but the weight change as a function of the relative humidity is very small
